Patent US20160074399A1, “Salts of an Epidermal Growth Factor Receptor Kinase Inhibitor” (Clovis Oncology, Inc., priority 2013, published 2016)

Test: Competitive slurry experiments Form I vs. Form III
Format: physicochemical
Details: ca. 3 days
Experimental: Competitive slurry experiments were set up in acetone, isopropanol, acetone:water (80:20) and isopropyl acetate at both room temperature (ca. 22° C.) and 60° C. Approximately 200 mg of each of Forms I and III material was placed into a vial and 4 mL of the appropriate solvent system was added to produce a slurry. For each experiment, the slurries were allowed to stir for ca. 3 days. Analysis by XRPD was then conducted to determine the form of the resultant solid. Competitive slurry experiments of Form I vs. Form III were carried out in 4 solvent systems and resulting solids were analysed by XRPD analysis (FIG. 82 and FIG. 83).

Br.C=CC(=O)Nc1cccc(Nc2nc(Nc3ccc(N4CCN(C(C)=O)CC4)cc3OC)ncc2C(F)(F)F)c1 [I and III]
Result (form of resultant solid) (Acetone, 60° C.): Form I | Result (form of resultant solid) (Acetone, RT (ca. 22° C.)): Form I | Result (form of resultant solid) (Acetone:water (80:20), 60° C.): Form VIII | Result (form of resultant solid) (Acetone:water (80:20), RT (ca. 22° C.)): Form VIII | Result (form of resultant solid) (Isopropanol, 60° C.): Form I | Result (form of resultant solid) (Isopropanol, RT (ca. 22° C.)): Form I | Result (form of resultant solid) (Isopropyl acetate, 60° C.): Form I | Result (form of resultant solid) (Isopropyl acetate, RT (ca. 22° C.)): Form I
